Laboratory results taken from patent US20220296599A1, “Pharmaceutical composition comprising histone deacetylase inhibitor and methotrexate” (Chong Kun Dang Pharmaceutical Corp., priority 2018, published 2022).
One block for each compound: values may come before it.

How the values were obtained:
[1] = system: adjuvant-induced arthritis (AIA) model; test: Clinical score analysis in adjuvant-induced arthritis (AIA) model; type: in vivo, Lewis rats; design: Clinical score 9th day / Clinical score 13th day / Clinical score 16th day / Clinical score 11th day / Clinical score 15th day / Clinical score 18th day: scale not given here; conditions: for Clinical score 9th day / Clinical score 13th day / Clinical score 16th day: Mean ± SD; for Clinical score 11th day / Clinical score 15th day / Clinical score 18th day: Mean ± SEM
Description: (§1) Lewis rats (female, five-weeks old) were purchased from Central Lab Animal, Inc. and kept in a controlled environment with a temperature at 22±2° C., a humidity at 44-56% and a light/dark cycle of 12 hours, while being allowed to have a free access to standard diet and water for one week before an examination. Complete Freund's Adjuvant (Chondrex) containing 10 mg/mL of heat killed mycobacteria toxin was fully mixed together, after which […] thereof was taken and subcutaneously injected into each upper tail of the rats to induce arthritis therefrom.
(§2) To administer a drug of compound 374 (SM374) and evaluate an effect thereof, the rats were divided into 11 groups (9, 10 or 11 animals per group) one day before or nine days after inducing arthritis, after which each group was classified according to administered substances (vehicle, compound 374 (SM374) or methotrexate (MTX)) and administration routes (oral administration (P.O.) or intraperitoneal administration (I.P.)) as shown in a following table 13.
(§3) Also, in order to administer a drug of compounds 374, 413, 484, 530 and 652 (SM374, SM413, SM484, SM530 and SM652) and evaluate an effect thereof, the rats were divided into 13 groups (9 or 10 animals per group) eight days after inducing arthritis, and each group was classified according to administered substances (vehicle, SM374, SM413, SM484, SM530, SM652 and MTX) and administration routes (oral or intraperitoneal administration) as shown in a following table 14.
To identify the efficacy of the inventive composition on preventing or treating arthritis in an AIA model, an analysis was made on the clinical scores of rats dosed with a compound 374 (SM 374, once per day) or MTX (once per week or twice per week) from 9th day to 16th day after inducing arthritis.
Particularly, a degree of swelling, erythema, etc., in each joint of the rats were observed, after which clinical scores were calculated according to a scoring system described in a following table 15, such that the clinical scores on four joints were added up to obtain total scores for each rat (Vishwakarma et al., 2013).
To identify the efficacy of the inventive composition on preventing or treating arthritis in an AIA model, an analysis was made on the clinical scores of rats dosed with compounds 374, 413, 484, 530 and 652 (SM374, SM413, SM484, SM530 and SM652, once per day) or MIX (once per week) from 8th day to 18th day after inducing arthritis.

anti-CCP IgG = test: Analysis of anti-CCP IgG in plasma in AIA model (QUANTA Lite CCP3 IgG ELISA); type: in vivo, Lewis rats; conditions: Mean ± SD
Description: as §1, §2
An effect of compound 374 (SM374) and MTX on preventing or treating arthritis according to administration thereof in combination was evaluated based on analysis of anti-CCP IgG, known as a diagnosis marker for rheumatoid arthritis.
Particularly, blood was collected from each jugular vein of rats dosed with compound 374 (SM374, once per day) and MTX (once or twice per week) from 9th day to 16th day after inducing AIA, after which plasma was isolated therefrom, such that anti-CCP IgG was measured with QUANTA Lite®CCP3 (cyclic citrullinated peptide 3) IgG ELISA kit (INOVA Diagnostics Inc., U.S., catalog no. 704535) according to a protocol offered by a manufacturer thereof, wherein the results thereof are shown in FIG. 5 and Table 20.

[2] = Analysis of body weights in AIA model; type: in vivo, Lewis rats; conditions: for Body weight (g) 9th day / Body weight (g) 13th day / Body weight (g) 16th day: Mean ± SD; for Body weight (g) 8th day / Body weight (g) 11th day / Body weight (g) 15th day / Body weight (g) 18th day: Table 19 study
Description: as §1, §2, §3
An analysis was made on the body weight of rats dosed with compound 374 (SM 374, once per day) or MIX (once per week or twice per week) from 9th day to 16th day after inducing AIA. […]

[3] = Pharmacokinetic analysis, plasma concentration by LC/MS; type: in vivo; conditions: rats, MTX 1 mg/kg only
Description: A bioequivalence was evaluated through a pharmacokinetic test on administration of the inventive compound 374 (SM374) and MTX in combination as well as administration of MTX only.
Particularly, after administration of compound 374 (SM374) and MTX, plasma was isolated from blood collected from rats for each time slot, after which organic solvent was added into such plasma to carry out deproteinization and extraction, such that a resulting sample was subjected to quantitative analysis by means of liquid chromatography and mass spectrometer (LC/MS) along with a calibration sample treated under the same conditions, to measure a concentration of compound 374 (SM374) and MTX (FIG. 6 and Table 21) in plasma of the rats as well as each PK parameter (Table 22).

[4] = MTX 3 mg/kg twice per week I.P.
[5] = Table 17 study, MTX 1 mg/kg once per week I.P.
[6] = Table 17 study, MTX 3 mg/kg once per week I.P.
[7] = Table 17 study, compound 10 mg/kg once per day P.O., 18th day vs vehicle
[8] = Table 17 study, compound 10 mg/kg once per day P.O.
[9] = compound 10 mg/kg once per day P.O.

AUC(0-inf) ([3]; rat, plasma): 1510 ± 231 ng·h/mL
Cmax ([3]; rat, plasma): 1300 ± 97.3 ng/mL
Tmax ([3]; rat, plasma): 30 min
half-life ([3]; rat, plasma): 54 min
AUC(0-t) ([3]; rat, plasma, read-out: AUC0→8h): 1500 ± 231 ng·h/mL
concentration at 0.5 hr ([3]; rat, plasma, time 0.5 hr): 1300 ± 97.3 ng/mL
concentration at 1 hr ([3]; rat, plasma, time 1 hr): 747 ± 129 ng/mL
concentration at 2 hr ([3]; rat, plasma, time 2 hr): 245 ± 108 ng/mL
concentration at 4 hr ([3]; rat, plasma, time 4 hr): 24.4 ± 9.7 ng/mL
concentration at 8 hr ([3]; rat, plasma, time 8 hr): 3 ± 0.3 ng/mL
Plasma concentration (ng/mL) ([3]; time 0 hr): BLOQ
Structure (SMILES): CN(Cc1cnc2nc(N)nc(N)c2n1)c1ccc(C(=O)N[C@@H](CCC(=O)O)C(=O)O)cc1 [MTX, Methotrexate]
Rate of reduction in clinical scores (%) ([1]; MTX 1 mg/kg once per week I.P., 16th day vs vehicle): 14.5%
Clinical score 9th day ([1]; MTX 1 mg/kg once per week I.P.): 0.0 ± 0.0
Clinical score 13th day ([1]; MTX 1 mg/kg once per week I.P.): 2.2 ± 1.2
Clinical score 16th day ([1]; MTX 1 mg/kg once per week I.P.): 5.9 ± 2.8
Rate of reduction in clinical scores (%) ([1]; MTX 3 mg/kg twice per week I.P., 16th day vs vehicle): 65.2%
Clinical score 9th day [1, 4]: 0.0 ± 0.0
Clinical score 13th day [1, 4]: 1.1 ± 1.6
Clinical score 16th day [1, 4]: 2.4 ± 3.0
Rate of reduction in clinical scores (%) ([1]; Table 17 study, MTX 1 mg/kg once per week I.P., 18th day vs vehicle): 23.0%
Clinical score 11th day [1, 5]: 0.0 ± 0.0
Clinical score 15th day [1, 5]: 1.3 ± 0.9
Clinical score 18th day [1, 5]: 4.7 ± 1.9
Rate of reduction in clinical scores (%) ([1]; Table 17 study, MTX 3 mg/kg once per week I.P., 18th day vs vehicle): 96.7%
Clinical score 11th day [1, 6]: 0.0 ± 0.0
Clinical score 15th day [1, 6]: 0.0 ± 0.0
Clinical score 18th day [1, 6]: 0.2 ± 0.2 #
Anti-CCP IgG (RU) (anti-CCP IgG; MTX 1 mg/kg): 208.0 ± 24.3 RU
Anti-CCP IgG (RU) (anti-CCP IgG; MTX 3 mg/kg): 104.6 ± 56.7 RU
Body weight (g) 9th day ([2]; MTX 1 mg/kg once per week I.P.): 157.3 ± 11.9 g
Body weight (g) 13th day ([2]; MTX 1 mg/kg once per week I.P.): 160.6 ± 4.2 g
Body weight (g) 16th day ([2]; MTX 1 mg/kg once per week I.P.): 153.8 ± 7.9 g
Body weight (g) 9th day [2, 4]: 157.2 ± 7.3 g
Body weight (g) 13th day [2, 4]: 159.6 ± 5.7 g
Body weight (g) 16th day [2, 4]: 157.6 ± 5.7 g
Body weight (g) 8th day ([2]; MTX 1 mg/kg once per week I.P.): 151.2 ± 2.4 g
Body weight (g) 11th day ([2]; MTX 1 mg/kg once per week I.P.): 152.1 ± 2.3 g
Body weight (g) 15th day ([2]; MTX 1 mg/kg once per week I.P.): 156.9 ± 2.8 g
Body weight (g) 18th day ([2]; MTX 1 mg/kg once per week I.P.): 155.0 ± 3.9 g
Body weight (g) 8th day ([2]; MTX 3 mg/kg once per week I.P.): 151.2 ± 2.4 g
Body weight (g) 11th day ([2]; MTX 3 mg/kg once per week I.P.): 151.6 ± 3.8 g
Body weight (g) 15th day ([2]; MTX 3 mg/kg once per week I.P.): 160.0 ± 2.9 g
Body weight (g) 18th day ([2]; MTX 3 mg/kg once per week I.P.): 164.7 ± 2.5 g

Structure (SMILES): O=C(NO)c1ccc(CN(C(=O)N2CCOCC2)c2ccc(F)cc2F)cc1 [SM413, N-(2,4-difluorophenyl)-N-(4-(hydroxycarbamoyl)benzyl)morpholine-4-carboxamide]
Rate of reduction in clinical scores (%) [1, 7]: −3.3%
Clinical score 11th day [1, 8]: 0.0 ± 0.0
Clinical score 15th day [1, 8]: 3.0 ± 1.4
Clinical score 18th day [1, 8]: 6.3 ± 1.4
Body weight (g) 8th day [2, 9]: 151.3 ± 2.9 g
Body weight (g) 11th day [2, 9]: 151.4 ± 3.9 g
Body weight (g) 15th day [2, 9]: 157.4 ± 4.2 g
Body weight (g) 18th day [2, 9]: 155.2 ± 4.5 g

Structure (SMILES): COc1cccc(N(Cc2ccc(C(=O)NO)cc2)C(=O)N2CCOCC2)c1 [SM484, N-(4-(hydroxycarbamoyl)benzyl)-N-(3-methoxyphenyl)morpholine-4-carboxamide]
Rate of reduction in clinical scores (%) [1, 7]: 19.7%
Clinical score 11th day [1, 8]: 0.0 ± 0.0
Clinical score 15th day [1, 8]: 2.9 ± 1.3
Clinical score 18th day [1, 8]: 4.9 ± 1.7
Body weight (g) 8th day [2, 9]: 151.4 ± 2.5 g
Body weight (g) 11th day [2, 9]: 154.7 ± 2.1 g
Body weight (g) 15th day [2, 9]: 160.7 ± 3.3 g
Body weight (g) 18th day [2, 9]: 158.3 ± 4.6 g
